Test results from patent US20120219615A1, “Therapeutic Use of a TLR Agonist and Combination Therapy” (The Trustees of the University of Pennsylvania, priority 2010, published 2012).

Test system: G-CSF, MCP-1, MIP-1β, TNFα
Assay: Phase I clinical study: pharmacodynamic response, plasma immune mediators (MAP)
Format: in vivo
Details: human, s.c., first dose
Description: Study Procedures: VTX-2337 was administered weekly via subcutaneous injection on Days 1, 8, and 15 of a 28-day dosing cycle for two cycles. Using a modified Fibonacci dose-escalation scheme, successive cohorts received doses ranging from 0.1 mg/m^2 to 3.9 mg/m^2 of VTX-2337. Plasma samples were collected for pharmacokinetic analysis after the first dose of the first treatment cycle and for pharmacodynamic analyses after the first dose of the first and second treatment cycles.
To evaluate the pharmacodynamic (PD) response to VTX-2337, blood was collected at 0, 4, 8, 24 hours after subcutaneous administration of the first dose of the first cycle of VTX-2337. Plasma levels of immune mediators were quantified using the human multiple analyte panel (MAP), version 1.8 (Rules Based Medicine). […] Levels of mediators in plasma collected from 9 healthy volunteers are shown for comparison to the oncology population. […]

CCCN(CCC)C(=O)C1=Cc2ccc(-c3ccc(C(=O)N4CCCC4)cc3)cc2N=C(N)C1 [VTX-2337, 2-amino-N,N-dipropyl-8-(4-(pyrrolidine-1-carbonyl)phenyl)-3H-benzo[b]azepine-4-carboxamide]
G-CSF plasma level (Cohort 5 (1.3 mg/m^2), 0 Hr): 5.0 ± 0.3 pg/mL
MCP-1 plasma level (Cohort 5 (1.3 mg/m^2), 0 Hr): 227 ± 79.8 pg/mL
MIP-1β plasma level (Cohort 5 (1.3 mg/m^2), 0 Hr): 182 ± 36.9 pg/mL
TNFα plasma level (Cohort 5 (1.3 mg/m^2), 0 Hr): 9.3 ± 4.1 pg/mL
G-CSF plasma level (Cohort 5 (1.3 mg/m^2), 4 Hr): 20.5 ± 24.7 pg/mL
MCP-1 plasma level (Cohort 5 (1.3 mg/m^2), 4 Hr): 911 ± 951 pg/mL
MIP-1β plasma level (Cohort 5 (1.3 mg/m^2), 4 Hr): 543 ± 477 pg/mL
TNFα plasma level (Cohort 5 (1.3 mg/m^2), 4 Hr): 14.9 ± 12.5 pg/mL
G-CSF plasma level (Cohort 5 (1.3 mg/m^2), 8 Hr): 196 ± 145 pg/mL
MCP-1 plasma level (Cohort 5 (1.3 mg/m^2), 8 Hr): 954 ± 638 pg/mL
MIP-1β plasma level (Cohort 5 (1.3 mg/m^2), 8 Hr): 688 ± 635 pg/mL
TNFα plasma level (Cohort 5 (1.3 mg/m^2), 8 Hr): 21.6 ± 13.3 pg/mL
G-CSF plasma level (Cohort 5 (1.3 mg/m^2), 24 Hr): 30.8 ± 10.4 pg/mL
MCP-1 plasma level (Cohort 5 (1.3 mg/m^2), 24 Hr): 246 ± 158 pg/mL
MIP-1β plasma level (Cohort 5 (1.3 mg/m^2), 24 Hr): 228 ± 70.1 pg/mL
TNFα plasma level (Cohort 5 (1.3 mg/m^2), 24 Hr): 15.3 ± 4.2 pg/mL
G-CSF plasma level (Cohort 6 (2.0 mg/m^2), 0 Hr): 9.9 ± 8.2 pg/mL
MCP-1 plasma level (Cohort 6 (2.0 mg/m^2), 0 Hr): 265 ± 161 pg/mL
MIP-1β plasma level (Cohort 6 (2.0 mg/m^2), 0 Hr): 136 ± 28.3 pg/mL
TNFα plasma level (Cohort 6 (2.0 mg/m^2), 0 Hr): 4.4 ± 1.6 pg/mL
G-CSF plasma level (Cohort 6 (2.0 mg/m^2), 4 Hr): 14.0 ± 4.3 pg/mL
MCP-1 plasma level (Cohort 6 (2.0 mg/m^2), 4 Hr): 247 ± 80.5 pg/mL
MIP-1β plasma level (Cohort 6 (2.0 mg/m^2), 4 Hr): 196 ± 62.5 pg/mL
TNFα plasma level (Cohort 6 (2.0 mg/m^2), 4 Hr): 8.4 ± 1.5 pg/mL
G-CSF plasma level (Cohort 6 (2.0 mg/m^2), 8 Hr): 134 ± 149 pg/mL
MCP-1 plasma level (Cohort 6 (2.0 mg/m^2), 8 Hr): 722 ± 224 pg/mL
MIP-1β plasma level (Cohort 6 (2.0 mg/m^2), 8 Hr): 289 ± 111 pg/mL
TNFα plasma level (Cohort 6 (2.0 mg/m^2), 8 Hr): 10.0 ± 2.3 pg/mL
G-CSF plasma level (Cohort 6 (2.0 mg/m^2), 24 Hr): 42.2 ± 31.6 pg/mL
MCP-1 plasma level (Cohort 6 (2.0 mg/m^2), 24 Hr): 320 ± 244 pg/mL
MIP-1β plasma level (Cohort 6 (2.0 mg/m^2), 24 Hr): 155 ± 26 pg/mL
TNFα plasma level (Cohort 6 (2.0 mg/m^2), 24 Hr): 10.0 ± 0.2 pg/mL
G-CSF plasma level (Cohort 7 (2.8 mg/m^2), 0 Hr): 7.4 ± 3.2 pg/mL
MCP-1 plasma level (Cohort 7 (2.8 mg/m^2), 0 Hr): 250 ± 110 pg/mL
MIP-1β plasma level (Cohort 7 (2.8 mg/m^2), 0 Hr): 136 ± 22 pg/mL
TNFα plasma level (Cohort 7 (2.8 mg/m^2), 0 Hr): 6.1 ± 1.8 pg/mL
G-CSF plasma level (Cohort 7 (2.8 mg/m^2), 4 Hr): 12.4 ± 2.4 pg/mL
MCP-1 plasma level (Cohort 7 (2.8 mg/m^2), 4 Hr): 719 ± 433 pg/mL
MIP-1β plasma level (Cohort 7 (2.8 mg/m^2), 4 Hr): 517 ± 305 pg/mL
TNFα plasma level (Cohort 7 (2.8 mg/m^2), 4 Hr): 10.9 ± 1.4 pg/mL
G-CSF plasma level (Cohort 7 (2.8 mg/m^2), 8 Hr): 553 ± 246 pg/mL
MCP-1 plasma level (Cohort 7 (2.8 mg/m^2), 8 Hr): 2043 ± 760 pg/mL
MIP-1β plasma level (Cohort 7 (2.8 mg/m^2), 8 Hr): 646 ± 216 pg/mL
TNFα plasma level (Cohort 7 (2.8 mg/m^2), 8 Hr): 12.8 ± 2.5 pg/mL
G-CSF plasma level (Cohort 7 (2.8 mg/m^2), 24 Hr): 59.0 ± 31.7 pg/mL
MCP-1 plasma level (Cohort 7 (2.8 mg/m^2), 24 Hr): 273 ± 109 pg/mL
MIP-1β plasma level (Cohort 7 (2.8 mg/m^2), 24 Hr): 152 ± 82 pg/mL
TNFα plasma level (Cohort 7 (2.8 mg/m^2), 24 Hr): 8.8 ± 4.1 pg/mL
G-CSF plasma level (Cohort 8 (3.9 mg/m^2), 0 Hr): 29.1 ± 55.8 pg/mL
MCP-1 plasma level (Cohort 8 (3.9 mg/m^2), 0 Hr): 249 ± 56 pg/mL
MIP-1β plasma level (Cohort 8 (3.9 mg/m^2), 0 Hr): 236 ± 111 pg/mL
TNFα plasma level (Cohort 8 (3.9 mg/m^2), 0 Hr): 14.9 ± 9.1 pg/mL
G-CSF plasma level (Cohort 8 (3.9 mg/m^2), 4 Hr): 83.3 ± 104.7 pg/mL
MCP-1 plasma level (Cohort 8 (3.9 mg/m^2), 4 Hr): 5227 ± 8362 pg/mL
MIP-1β plasma level (Cohort 8 (3.9 mg/m^2), 4 Hr): 7793 ± 10824 pg/mL
TNFα plasma level (Cohort 8 (3.9 mg/m^2), 4 Hr): 56.9 ± 48.3 pg/mL
G-CSF plasma level (Cohort 8 (3.9 mg/m^2), 8 Hr): 2151 ± 3586 pg/mL
MCP-1 plasma level (Cohort 8 (3.9 mg/m^2), 8 Hr): 8128 ± 10588 pg/mL
MIP-1β plasma level (Cohort 8 (3.9 mg/m^2), 8 Hr): 2259 ± 2456 pg/mL
TNFα plasma level (Cohort 8 (3.9 mg/m^2), 8 Hr): 42.7 ± 27.4 pg/mL
G-CSF plasma level (Cohort 8 (3.9 mg/m^2), 24 Hr): 141.4 ± 228.8 pg/mL
MCP-1 plasma level (Cohort 8 (3.9 mg/m^2), 24 Hr): 532 ± 571 pg/mL
MIP-1β plasma level (Cohort 8 (3.9 mg/m^2), 24 Hr): 276 ± 108 pg/mL
TNFα plasma level (Cohort 8 (3.9 mg/m^2), 24 Hr): 24.2 ± 9.4 pg/mL
